For orientation: EC50 means the midpoint of the concentration-response curve. Read a high EC50 as weaker potency. As a reminder, the IC50 is the midpoint of a concentration-inhibition curve. Higher therefore signals a need for much substance. By Kd is commonly meant the constant that tells how readily two partners part at equilibrium.

Drawing on article doi:10.1101/2022.08.09.502705v1 (biorxiv, 2022), this text covers EC50, IC50 and Kd for five molecules.

Assay [1] concerns iEscSnFR. The experiment in a line: fluorescence concentration-response of purified biosensor. The assay is classed as binding. The following applies: purified protein.
The next assay deals with hSERT (Homo sapiens, UniProt P31645, K490T). The experiment in a line: cell-based.
hSERT, sequence (P31645 whole entry K490T): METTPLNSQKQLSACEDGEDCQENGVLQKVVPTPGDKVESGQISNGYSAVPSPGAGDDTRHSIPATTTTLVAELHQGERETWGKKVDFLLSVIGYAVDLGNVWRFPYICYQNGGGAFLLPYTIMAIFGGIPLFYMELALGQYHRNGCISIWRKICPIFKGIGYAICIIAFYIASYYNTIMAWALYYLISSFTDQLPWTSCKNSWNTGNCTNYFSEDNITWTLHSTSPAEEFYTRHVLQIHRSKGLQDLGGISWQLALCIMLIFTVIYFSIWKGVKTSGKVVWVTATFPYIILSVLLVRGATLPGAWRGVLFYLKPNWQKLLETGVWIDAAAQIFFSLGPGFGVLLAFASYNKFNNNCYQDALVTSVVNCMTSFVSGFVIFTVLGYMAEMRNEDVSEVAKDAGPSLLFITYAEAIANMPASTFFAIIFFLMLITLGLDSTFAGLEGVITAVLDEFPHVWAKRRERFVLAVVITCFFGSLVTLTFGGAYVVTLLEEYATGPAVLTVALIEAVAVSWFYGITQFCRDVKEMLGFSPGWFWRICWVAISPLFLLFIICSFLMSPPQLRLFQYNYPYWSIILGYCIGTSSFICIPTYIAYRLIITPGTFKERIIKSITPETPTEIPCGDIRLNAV
Assay [2] concerns the target iFluoxSnFR. The experiment in a line: isothermal titration calorimetry. The assay is classed as binding. Particulars: 3x PBS pH […] °C. On the technique in general: ITC needs no label: the signal is the heat of the interaction.
In assay [3] the test system is iFluoxSnFR. The experiment in a line: fluorescence concentration-response of purified biosensor. The following applies: purified protein. The class given is binding.
The target in assay [4] is iEscSnFR. The experiment in a line: isothermal titration calorimetry. The assay is classed as binding. Particulars: 3x PBS pH […] °C.

Consider `C[N+](C)(C)CCC[C@@]1(c2ccc(F)cc2)OCc2cc(C#N)ccc21` [N-methylescitalopram], for which, in the assay on iEscSnFR [1], the concentration for a half-maximal effect (EC50) was 1.8 ± 0.2 µM.
In turn, `C[N+](C)(C)CCC(Oc1ccc(C(F)(F)F)cc1)c1ccccc1` (racemic) [N-N-dimethylfluoxetine] came in with an IC50 on hSERT of 0.6 ± 0.2 µM. In addition, the Kd at iFluoxSnFR [2] was determined as 28.1 ± 3.7 µM. This molecule showed an EC50 with iFluoxSnFR [3] of 14 ± 0.4 µM.
For the molecule `CN(C)CCC[C@@]1(c2ccc(F)cc2)OCc2cc(C#N)ccc21` [escitalopram], the EC50 in the assay on iEscSnFR [1] was 4.5 ± 0.2 µM. Further, on iEscSnFR [4], the dissociation constant Kd turned out to be 3.4 ± 0.1 µM.
With `NCCC(Oc1ccc(C(F)(F)F)cc1)c1ccccc1` (centres unmarked) [norfluoxetine], in the assay with iFluoxSnFR [3], the EC50 stood at 63 ± 20 µM.
On to `C[N+](C)(C)CCO` [choline], for which the response in the assay with iEscSnFR [1] was half-maximal at 140 ± 20 µM (EC50).
